Molecular target: unphosphorylated-BTK kinase domain (UP-BTK), GST-tagged human BTK (389-659aa) (Homo sapiens (Human), UniProt Q06187)
Assay: BTK kinase Lanthascreen binding assay
Settings: Lanthascreen tracer competition, 60 minutes incubation; pIC50 = negative log of the IC50 in molar
Procedure, shortened: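 A fluorescent tracer is bound to unphosphorylated BTK; test compound is added to compete it off; the Lanthascreen signal is read and IC50 is fitted, then reported as its negative log in molar.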

unphosphorylated-BTK kinase domain (UP-BTK), GST-tagged human BTK (389-659aa), sequence (Q06187 389-659): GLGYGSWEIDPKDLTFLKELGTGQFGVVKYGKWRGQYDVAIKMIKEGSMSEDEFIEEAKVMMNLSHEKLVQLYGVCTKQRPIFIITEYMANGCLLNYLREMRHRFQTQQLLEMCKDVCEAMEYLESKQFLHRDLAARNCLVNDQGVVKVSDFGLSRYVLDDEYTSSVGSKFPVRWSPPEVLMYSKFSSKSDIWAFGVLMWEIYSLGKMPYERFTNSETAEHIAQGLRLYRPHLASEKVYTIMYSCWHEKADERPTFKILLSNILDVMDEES

SMILES	BTK_I_binding pIC50
CC(C)(C)OC(=O)N1C[C@H](NC(=O)c2sc3nccc4c3c2NC(=O)N4c2ccc(Oc3ccccc3)cc2)[C@@H](F)C1 [Example 625, (3S,4S)-tert-Butyl 3-fluoro-4-(4-oxo-5-(4-phenoxyphenyl)-4,5-dihydro-3H-1-thia-3,5,8-triazaacenaphthylene-2-carboxamido)pyrrolidine-1-carboxylate]	5.9
C=CC(=O)N1CCC[C@@H](NC(=O)c2sc3nccc4c3c2NC(=O)N4c2cnc(OC3CCCC3)cc2C)C1 (single isomer, unassigned) [Example 769, (R)—N-(1-Acryloylpiperidin-3-yl)-5-(*R)-(6-(cyclopentyloxy)-4-methylpyridin-3-yl)-4-oxo-4,5-dihydro-3H-1-thia-3,5,8-triazaacenaphthylene-2-carboxamide]	6.2
C=CC(=O)N1CC[C@@H](NC(=O)c2sc3nccc4c3c2NC(=O)N4c2ccc(Oc3ccccc3)nc2)C1 [Example 680, (R)—N-(1-Acryloylpyrrolidin-3-yl)-4-oxo-5-(6-phenoxypyridin-3-yl)-4,5-dihydro-3H-1-thia-3,5,8-triazaacenaphthylene-2-carboxamide]	7.3
O=C(N[C@@H]1CCCNC1)c1sc2nccc3c2c1NC(=O)N3c1cc(-c2ccccc2)cnn1 [Example 755, (R)-4-Oxo-5-(5-phenylpyridazin-3-yl)-N-(piperidin-3-yl)-4,5-dihydro-3H-1-thia-3,5,8-triazaacenaphthylene-2-carboxamide]	<6
C=CC(=O)N1C[C@@H](O)[C@@H](NC(=O)c2sc3nccc4c3c2NC(=O)N4c2ccc(OC(C)C)cc2C)C1 [Example 614, N-((3S,4R)-1-Acryloyl-4-hydroxypyrrolidin-3-yl)-5-(4-isopropoxy-2-methylphenyl)-4-oxo-4,5-dihydro-3H-1-thia-3,5,8-triazaacenaphthylene-2-carboxamide]	6.1
C=CC(=O)N1CCC[C@@H](NC(=O)c2sc3nccc4c3c2NC(=O)N4c2ccc(OC3CCC3)nc2C)C1 (single isomer, unassigned) [Example 682, (R)—N-(1-Acryloylpiperidin-3-yl)-5-(*S)-(6-cyclobutoxy-2-methylpyridin-3-yl)-4-oxo-4,5-dihydro-3H-1-thia-3,5,8-triazaacenaphthylene-2-carboxamide]	7.3
Cc1ccc(Oc2ccccc2)cc1N1C(=O)Nc2c(C(=O)N[C@@H]3CCCN(C(=O)/C(C#N)=C/C4CC4)C3)sc3nccc1c23 (racemic) [Example 875, (E)-N-(1-(2-Cyano-3-cyclopropylacryloyl)piperidin-3-yl)-5-(2-methyl-5-phenoxyphenyl)-4-oxo-4,5-dihydro-3H-1-thia-3,5,8-triazaacenaphthylene-2-carboxamide]	7.2
O=C(N[C@@H]1CCCNC1)c1sc2nccc3c2c1NC(=O)N3c1ccc(Oc2ccccc2)cc1 [Example 860, (R)-4-oxo-5-(4-phenoxyphenyl)-N-(piperidin-3-yl)-4,5-dihydro-3H-1-thia-3,5,8-triazaacenaphthylene-2-carboxamide]	7.4

Same assay, conditions: Lanthascreen tracer competition, 60 minutes incubation; pIC50 = negative log of the IC50 in molar; read-out: BTK_I_binding pIC50 (converted)

SMILES	IC50 [nM]
Cc1cc(OC2CCC2)ccc1N1C(=O)Nc2c(C(=O)N[C@@H]3CCCNC3)sc3nccc1c23 [Example 605, (R)-5-(4-cyclobutoxy-2-methylphenyl)-4-oxo-N-(piperidin-3-yl)-4,5-dihydro-3H-1-thia-3,5,8-triazaacenaphthylene-2-carboxamide]	501
Cc1cc(Oc2ccccc2)ccc1N1C(=O)Nc2c(NC(=O)C3CCCN(C(=O)/C(C#N)=C/C(C)(C)C)C3)sc3nccc1c23 (centres unmarked) [Example 816, (E)-1-(2-Cyano-4,4-dimethylpent-2-enoyl)-N-(5-(2-methyl-4-phenoxyphenyl)-4-oxo-4,5-dihydro-3H-1-thia-3,5,8-triazaacenaphthylen-2-yl)piperidine-3-carboxamide]	1000

Same assay, conditions: pIC50 = negative log of the IC50 in molar; 60 minutes incubation, 50 nM Tracer 236

SMILES	BTK_I_binding pIC50
C=CC(=O)N1CC[C@@H](NC(=O)c2sc3nccc4c3c2NC(=O)N4c2ccc(Oc3ccccc3)cc2C)C1 [Example 11, (R)—N-(1-Acryloylpyrrolidin-3-yl)-5-(2-methyl-4-phenoxyphenyl)-4-oxo-4,5-dihydro-3H-1-thia-3,5,8-triazaacenaphthylene-2-carboxamide]	7.9
Cc1cc(Oc2ccccc2)ccc1N1C(=O)Nc2c(C(=O)N[C@H]3CCCOC3)sc3nccc1c23 [Example 67, (S)-5-(2-Methyl-4-phenoxyphenyl)-4-oxo-N-(tetrahydro-2H-pyran-3-yl)-4,5-dihydro-3H-1-thia-3,5,8-triazaacenaphthylene-2-carboxamide]	7.5
Cc1cc(Oc2ccccc2C(C)C)ccc1N1C(=O)Nc2c(C(=O)N[C@@H]3CCCN(C)C3)sc3nccc1c23 [Example 223, (R)-5-(4-(2-Isopropylphenoxy)-2-methylphenyl)-N-(1-methylpiperidin-3-yl)-4-oxo-4,5-dihydro-3H-1-thia-3,5,8-triazaacenaphthylene-2-carboxamide]	6.6
Cc1cc(Oc2ccccc2)ccc1N1C(=O)Nc2c(C(=O)NC3CN(C4CC4)C3)sc3nccc1c23 [Example 230, N-(1-Cyclopropylazetidin-3-yl)-5-(2-methyl-4-phenoxyphenyl)-4-oxo-4,5-dihydro-3H-1-thia-3,5,8-triazaacenaphthylene-2-carboxamide]	6.4
Cc1cc(Oc2ccccc2)ccc1N1C(=O)Nc2c(C(=O)N[C@@H]3CCCN(C(=O)CN)C3)sc3nccc1c23 [Example 151, (R)—N-(1-(2-Aminoacetyl)piperidin-3-yl)-5-(2-methyl-4-phenoxyphenyl)-4-oxo-4,5-dihydro-3H-1-thia-3,5,8-triazaacenaphthylene-2-carboxamide]	7.2
C=CC(=O)N1CCC[C@@H](NC(=O)c2sc3nccc4c3c2NC(=O)N4c2cccc(C)c2)C1 [Example 279, (R)—N-(1-Acryloylpiperidin-3-yl)-4-oxo-5-(m-tolyl)-4,5-dihydro-3H-1-thia-3,5,8-triazaacenaphthylene-2-carboxamide]	6.2
Cc1cc(Oc2ccccc2)ccc1N1C(=O)Nc2c(C(=O)N[C@@H]3CCCN(C(=O)/C=C/C(C)C)C3)sc3nccc1c23 [Example 247, (R,E)-5-(2-Methyl-4-phenoxyphenyl)-N-(1-(4-methylpent-2-enoyl)piperidin-3-yl)-4-oxo-4,5-dihydro-3H-1-thia-3,5,8-triazaacenaphthylene-2-carboxamide]	6.5

Same assay, conditions: unphosphorylated-BTK kinase domain, 50 nM Tracer 236, 60 minutes; pIC50 = negative log of the IC50 in molar

SMILES	BTK_I_binding pIC50
C=CS(=O)(=O)N1CCC[C@@H](NC(=O)c2sc3nccc4c3c2NC(=O)N4c2ccc(Oc3ccccc3)cc2C)C1 [Example 372, (R)-5-(2-Methyl-4-phenoxyphenyl)-4-oxo-N-(1-(vinylsulfonyl)piperidin-3-yl)-4,5-dihydro-3H-1-thia-3,5,8-triazaacenaphthylene-2-carboxamide]	7.6
O=C(N[C@@H]1CCCNC1)c1sc2nccc3c2c1NC(=O)N3c1ccn(Cc2ccccc2)n1 [Example 431, (R)-5-(1-Benzyl-1H-pyrazol-3-yl)-4-oxo-N-(piperidin-3-yl)-4,5-dihydro-3H-1-thia-3,5,8-triazaacenaphthylene-2-carboxamide]	<5
Cc1cc(Oc2ccccc2)ccc1N1C(=O)Nc2c(C(=O)N[C@@H]3CCCN(C(=O)/C=C/CN4CCOCC4)C3)sc3nccc1c23 [Example 403, (R,E)-5-(2-Methyl-4-phenoxyphenyl)-N-(1-(4-morpholinobut-2-enoyl)piperidin-3-yl)-4-oxo-4,5-dihydro-3H-1-thia-3,5,8-triazaacenaphthylene-2-carboxamide]	6.4
O=C(NC1CCCNC1=O)c1sc2nccc3c2c1NC(=O)N3c1ccc(Oc2ccccc2)cc1 (centres unmarked) [Example 458, 4-Oxo-N-(2-oxopiperidin-3-yl)-5-(4-phenoxyphenyl)-4,5-dihydro-3H-1-thia-3,5,8-triazaacenaphthylene-2-carboxamide]	6.2
C=CC(=O)N1CCC[C@@H](NC(=O)c2sc3nccc4c3c2NC(=O)N4Cc2ccc(Oc3ccccc3)cc2)C1 [Example 408, (R)—N-(1-Acryloylpiperidin-3-yl)-4-oxo-5-(4-phenoxybenzyl)-4,5-dihydro-3H-1-thia-3,5,8-triazaacenaphthylene-2-carboxamide]	5.1

Further lines, results first:

BTK_I_binding pIC50	SMILES
7.5	C=CC(=O)N1CCC[C@@H](NC(=O)c2sc3nccc4c3c2NC(=O)N4c2cccc(CCC)c2)C1 [Example 533, (R)—N-(1-Acryloylpiperidin-3-yl)-4-oxo-5-(3-propylphenyl)-4,5-dihydro-3H-1-thia-3,5,8-triazaacenaphthylene-2-carboxamide]
<5	COc1ccc(N2C(=O)Nc3c(C(=O)N[C@@H]4CCCNC4)sc4nccc2c34)cc1C(F)(F)F [Example 459, (R)-5-(4-Methoxy-3-(trifluoromethyl)phenyl)-4-oxo-N-(piperidin-3-yl)-4,5-dihydro-3H-1-thia-3,5,8-triazaacenaphthylene-2-carboxamide]

Same assay, conditions: unphosphorylated-BTK kinase domain, 60 minutes incubation, 50 nM Tracer 236; pIC50 = negative log of the IC50 in molar

SMILES	BTK_I_binding pIC50
C=CC(=O)N1CCC[C@@H](NC(=O)c2sc3nccc4c3c2NC(=O)N4c2ccc(N)cc2)C1 [Example 948, (R)—N-(1-Acryloylpiperidin-3-yl)-5-(4-aminophenyl)-4-oxo-4,5-dihydro-3H-1-thia-3,5,8-triazaacenaphthylene-2-carboxamide]	5.2
Nc1ccc(N2C(=O)Nc3c(C(=O)N[C@@H]4CCCNC4)sc4nccc2c34)cc1 [Example 956, (R)-5-(4-Aminophenyl)-4-oxo-N-(piperidin-3-yl)-4,5-dihydro-3H-1-thia-3,5,8-triazaacenaphthylene-2-carboxamide]	<5
